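Cells were grown in 96-well plates and exposed to each compound for 48 hours at five concentrations; endpoints were interpolated linearly between bracketing concentrations, or set to the highest concentration if not reached. TGI: total growth inhibition.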
Key:
Test in all cases: growth of human tumour cells (NCI), 48 h
MDA-N = test system: MDA-N
SK-MEL-5 melanoma = test system: SK-MEL-5 melanoma
OVCAR-8 ovarian = test system: OVCAR-8 ovarian
A549 NSCLC = test system: A549 NSCLC
OVCAR-5 ovarian = test system: OVCAR-5 ovarian
CAKI-1 renal = test system: CAKI-1 renal
HCT-116 colon = test system: HCT-116 colon
HOP-92 NSCLC = test system: HOP-92 NSCLC
SF-268 CNS = test system: SF-268 CNS
COLO 205 colon = test system: COLO 205 colon
RXF 393 renal = test system: RXF 393 renal
MOLT-4 leukemia = test system: MOLT-4 leukemia
NCI/ADR-RES ovarian = test system: NCI/ADR-RES ovarian
RPMI-8226 leukemia = test system: RPMI-8226 leukemia
MCF7 breast = test system: MCF7 breast
SF-539 CNS = test system: SF-539 CNS
A498 renal = test system: A498 renal

Row | Compound | TGI (MDA-N) | TGI (SK-MEL-5 melanoma) | TGI (OVCAR-8 ovarian) | TGI (A549 NSCLC) | TGI (OVCAR-5 ovarian) | TGI (CAKI-1 renal) | TGI (HCT-116 colon) | TGI (HOP-92 NSCLC) | TGI (SF-268 CNS) | TGI (COLO 205 colon) | TGI (RXF 393 renal) | TGI (MOLT-4 leukemia) | TGI (NCI/ADR-RES ovarian) | TGI (RPMI-8226 leukemia) | TGI (MCF7 breast) | TGI (SF-539 CNS) | TGI (A498 renal)
1 | COc1ccc(/C=C/C(=O)c2cc(OC)cc(OC)c2)cc1 | 5.33 µM | 24.2 µM | 18.3 µM | 6.96 µM | 18.1 µM | 12.9 µM | 6.67 µM | 60.4 µM | 16.4 µM | 16.8 µM | 8.6 µM | > 26.6 µM | 9.02 µM | 26.1 µM | 0.952 µM | 7.93 µM | 11.7 µM
2 | Clc1ccc(/C=C/c2nc(-c3ccccc3)cn3c2nc2ccccc23)cc1Cl | > 100 µM | > 100 µM |  | > 100 µM | > 100 µM |  | > 100 µM | > 100 µM | > 100 µM | > 100 µM | > 100 µM | > 100 µM | > 100 µM | > 100 µM | > 100 µM | > 100 µM | > 100 µM
3 | C=CC(=O)NCCC(=O)OCn1cc(F)c(=O)[nH]c1=O | > 100 µM | > 100 µM | > 100 µM | > 100 µM | > 100 µM | > 100 µM | 66.8 µM | > 100 µM | > 100 µM | > 100 µM | 94.6 µM | > 100 µM | > 100 µM | > 100 µM | > 100 µM | > 100 µM | > 100 µM
4 | O=c1[nH]c(=S)[nH]cc1CN1CCOCC1 | > 100 µM | > 100 µM | > 100 µM | > 100 µM | > 100 µM | > 100 µM | > 100 µM | > 100 µM | > 100 µM | > 100 µM | > 100 µM | > 100 µM | > 100 µM | > 100 µM | > 100 µM | > 100 µM | > 100 µM
5 | Cc1cn([C@@H]2O[C@H](CO[Si](C)(C)C(C)(C)C)[C@]3(O[C@H]3C(=O)NO)[C@H]2O[Si](C)(C)C(C)(C)C)c(=O)[nH]c1=O | 3.01 µM | 3.58 µM | 3.53 µM | 3.63 µM | 3.33 µM | 4.31 µM | 2.85 µM | 4.17 µM | 2.97 µM |  | 3.34 µM | 4.62 µM | 18.5 µM | 2.84 µM | 3.15 µM | 2.83 µM | 3.33 µM
6 | COC(=NC(C)C)NC(C)C | > 100 µM | > 100 µM | > 100 µM | > 100 µM | > 100 µM |  | > 100 µM | > 100 µM | > 100 µM | > 100 µM |  | > 100 µM | > 100 µM | > 100 µM | > 100 µM | > 100 µM | > 100 µM
7 | CC(NCc1c(O)ccc2c(-c3ccccc3)cc(=O)oc12)C(=O)O (stereo unspecified) | > 100 µM | > 100 µM | > 100 µM | > 100 µM | > 100 µM | > 100 µM | > 100 µM | > 100 µM | > 100 µM | > 100 µM | > 100 µM | > 100 µM | > 100 µM | > 100 µM | > 100 µM | > 100 µM | 
8 | CCOC(=O)c1nc2ccccc2nc1Oc1cc(OC)cc(OC)c1 | > 100 µM | > 100 µM | > 100 µM | > 100 µM | > 100 µM |  | > 100 µM | > 100 µM | > 100 µM | > 100 µM | > 100 µM | > 100 µM | > 100 µM | > 100 µM | > 100 µM | > 100 µM | > 100 µM
9 | COC(=O)NC(=O)NC(Cc1ccccc1)NC(=O)OCc1ccccc1 (stereo unspecified) | > 100 µM | > 100 µM | > 100 µM | > 100 µM | > 100 µM | > 100 µM | > 100 µM | 42.5 µM | > 100 µM | > 100 µM | 45.4 µM | > 100 µM | > 100 µM | > 100 µM | > 100 µM | 71.4 µM | 91.5 µM
10 | COc1ccc2c(c1)/C(=C/c1c(O)[nH]c(=S)[nH]c1=O)C=N2 | > 100 µM | > 100 µM | > 100 µM | > 100 µM | > 100 µM | > 100 µM | > 100 µM | > 100 µM | 61.8 µM | > 100 µM | 96.9 µM | > 100 µM | > 100 µM |  | > 100 µM | > 100 µM | > 100 µM
11 | COc1ccc2c(-c3csc(-c4c[nH]c5ccc(Br)cc45)n3)c[nH]c2c1 | 30.8 µM | > 100 µM | > 100 µM | > 100 µM | > 100 µM | > 100 µM | > 100 µM | > 100 µM | 73.4 µM | > 100 µM | 27.9 µM | > 100 µM | > 100 µM | > 100 µM | > 100 µM |  | > 100 µM
12 | O=C1CSC(c2c[nH]c3ccccc23)N1c1cccc(Cl)c1 (stereo unspecified) | > 100 µM | > 100 µM | > 100 µM | > 100 µM | > 100 µM |  | > 100 µM | > 100 µM | > 100 µM | > 100 µM | > 100 µM | > 100 µM | > 100 µM | 54.7 µM | > 100 µM | > 100 µM | > 100 µM
13 | Cc1ccc(S(=O)(=O)NNC(=O)Nc2cccc(C(F)(F)F)c2)cc1 | > 100 µM | > 100 µM | > 100 µM | > 100 µM | > 100 µM | > 100 µM | > 100 µM | > 100 µM | > 100 µM | > 100 µM | > 100 µM | > 100 µM | > 100 µM | > 100 µM | > 100 µM | > 100 µM | > 100 µM
14 | CN1CCN(Cn2nc(COc3ccccc3Cl)n(/N=C/c3ccc(-c4ccc(Cl)cc4Cl)o3)c2=S)CC1 | 53.8 µM | 71.8 µM | 79.3 µM |  | > 100 µM | 50.4 µM | 34.7 µM | 40.6 µM | > 100 µM |  | 32 µM | 62.1 µM | 61.9 µM | 83.8 µM | 53.3 µM | 62.6 µM | 54.1 µM

Source: PubChem BioAssay (NCI)
